Results reported in ChEMBL document CHEMBL3588790, “Identification of p-hydroxybenzyl alcohol, tyrosol, phloretin and its derivate phloridzin as tyrosinase substrates” (Bioorg Med Chem, 2015).
Activity calls are given as the source filed them. No cut-off for these calls is given here.

Legend:
[1] = biological target: T1, Tyrosinase (Agaricus bisporus) (UniProt O42713); assay: Inhibition of monophenolase activity of mushroom tyrosinase using L-tyrosine as substrate at 0.1 mM by spectrophotometric assay
T1 sequence (whole entry): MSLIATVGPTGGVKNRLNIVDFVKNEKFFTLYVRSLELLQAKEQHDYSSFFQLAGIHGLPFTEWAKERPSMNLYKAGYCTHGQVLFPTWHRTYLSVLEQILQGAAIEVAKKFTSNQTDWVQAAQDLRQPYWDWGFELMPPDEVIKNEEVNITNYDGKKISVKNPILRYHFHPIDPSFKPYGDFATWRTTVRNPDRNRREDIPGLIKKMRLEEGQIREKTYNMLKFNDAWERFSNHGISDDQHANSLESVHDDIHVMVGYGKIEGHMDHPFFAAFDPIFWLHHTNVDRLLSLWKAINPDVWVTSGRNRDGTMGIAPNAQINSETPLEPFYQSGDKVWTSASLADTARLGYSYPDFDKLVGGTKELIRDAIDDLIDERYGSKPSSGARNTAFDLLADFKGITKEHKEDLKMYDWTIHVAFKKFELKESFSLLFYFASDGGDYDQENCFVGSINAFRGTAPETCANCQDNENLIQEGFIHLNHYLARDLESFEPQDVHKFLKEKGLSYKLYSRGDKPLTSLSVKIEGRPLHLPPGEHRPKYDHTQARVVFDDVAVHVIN

[2] = biological target: T1, Tyrosinase (Agaricus bisporus); details: 0.15 mM
Description: Inhibition of monophenolase activity of mushroom tyrosinase using L-tyrosine as substrate at 0.15 mM by spectrophotometric assay

[3] = biological target: T1, Tyrosinase (Agaricus bisporus); details: 0.15 mM; remark: listed apart in the source
Description: Inhibition of diphenolase activity of mushroom tyrosinase using L-dopa as substrate at 0.15 mM by spectrophotometric assay

[4] = biological target: T1, Tyrosinase (Agaricus bisporus); assay: Activity at mushroom tyrosinase by spectrophotometric assay in presence of hydrogen peroxide
[5] = biological target: T1, Tyrosinase (Agaricus bisporus); assay: Activity at mushroom tyrosinase assessed as decrease in absorbance using L-tyrosine as substrate by oxygen consumption assay
[6] = biological target: T1, Tyrosinase (Agaricus bisporus); assay: Inhibition of diphenolase activity of mushroom tyrosinase using L-dopa as substrate at 0.05 mM by spectrophotometric assay
[7] = biological target: T1, Tyrosinase (Agaricus bisporus); assay: Activity at mushroom tyrosinase assessed as decrease in absorbance using DOMA as substrate by oxygen consumption assay
[8] = biological target: T1, Tyrosinase (Agaricus bisporus); assay: Inhibition of monophenolase activity of mushroom tyrosinase using L-tyrosine as substrate at 0.05 mM by spectrophotometric assay
[9] = biological target: T1, Tyrosinase (Agaricus bisporus); assay: Activity at mushroom tyrosinase assessed as decrease in absorbance using L-dopa as substrate by oxygen consumption assay
[10] = biological target: T1, Tyrosinase (Agaricus bisporus); assay: Inhibition of diphenolase activity of mushroom tyrosinase using L-dopa as substrate at 0.1 mM by spectrophotometric assay
[11] = biological target: T1, Tyrosinase (Agaricus bisporus); assay: Inhibition of monophenolase activity of mushroom tyrosinase using L-tyrosine as substrate at 9 mM by spectrophotometric assay
[12] = biological target: T1, Tyrosinase (Agaricus bisporus); assay: Inhibition of diphenolase activity of mushroom tyrosinase using L-dopa as substrate at 6 mM by spectrophotometric assay
[13] = biological target: T1, Tyrosinase (Agaricus bisporus); assay: Inhibition of monophenolase activity of mushroom tyrosinase using L-tyrosine as substrate at 6 mM by spectrophotometric assay
[14] = biological target: T1, Tyrosinase (Agaricus bisporus); assay: Inhibition of diphenolase activity of mushroom tyrosinase using L-dopa as substrate at 9 mM by spectrophotometric assay
[15] = biological target: T1, Tyrosinase (Agaricus bisporus); assay: Inhibition of monophenolase activity of mushroom tyrosinase using L-tyrosine as substrate at 3 mM by spectrophotometric assay
[16] = biological target: T1, Tyrosinase (Agaricus bisporus); assay: Inhibition of diphenolase activity of mushroom tyrosinase using L-dopa as substrate at 3 mM by spectrophotometric assay
[17] = biological target: T1, Tyrosinase (Agaricus bisporus); assay: Inhibition of diphenolase activity of mushroom tyrosinase using L-dopa as substrate at 1 mM by spectrophotometric assay
[18] = biological target: T1, Tyrosinase (Agaricus bisporus); assay: Inhibition of diphenolase activity of mushroom tyrosinase using L-dopa as substrate at 1.5 mM by spectrophotometric assay
[19] = biological target: T1, Tyrosinase (Agaricus bisporus); assay: Inhibition of diphenolase activity of mushroom tyrosinase using L-dopa as substrate at 0.5 mM by spectrophotometric assay
[20] = biological target: T1, Tyrosinase (Agaricus bisporus); assay: Inhibition of monophenolase activity of mushroom tyrosinase using L-tyrosine as substrate at 0.2 mM by spectrophotometric assay
[21] = biological target: T1, Tyrosinase (Agaricus bisporus); assay: Activity at mushroom tyrosinase assessed as decrease in absorbance at 475 nm using L-dopa as substrate by spectrophotometric assay in presence of sodium periodate
[22] = biological target: T1, Tyrosinase (Agaricus bisporus); assay: Inhibition of diphenolase activity of mushroom tyrosinase using L-dopa as substrate at 0.2 mM by spectrophotometric assay

| inhibition [1] [%] | Activity [4] | Activity [5] | inhibition [6] [%] | Activity [7] | inhibition [8] [%] | Activity [9] | inhibition [10] [%] | inhibition [17] [%] | inhibition [18] [%] | inhibition [19] [%] | Structure (SMILES) | further results |
| --- | --- | --- | --- | --- | --- | --- | --- | --- | --- | --- | --- | --- |
| 34 | Active | Active | 31.4 | Active | 9 | Active | 45.3 | – | – | – | O=C(CCc1ccc(O)cc1)c1c(O)cc(O)cc1O[C@@H]1O[C@H](CO)[C@@H](O)[C@H](O)[C@H]1O | inhibition [2]: 47.7%; inhibition [3]: 52.7% |
| – | – | – | – | – | – | – | – | – | – | – | O=C(O)Cc1ccccc1 | inhibition [11]: 55.4%; inhibition [12]: 41.6%; inhibition [13]: 39.4%; inhibition [14]: 58.1%; inhibition [15]: 19.7%; inhibition [16]: 18.2% |
| – | Active | Active | – | Active | – | Active | – | 18.7 | 18.3 | 14.3 | OCCc1ccc(O)cc1 | – |
| – | Active | Active | – | Active | – | Active | – | 28.4 | 38.9 | 15.2 | OCc1ccc(O)cc1 | – |
| 17.9 | Active | – | 28.3 | – | 4.2 | – | 46.2 | – | – | – | O=C(CCc1ccc(O)cc1)c1c(O)cc(O)cc1O | inhibition [20]: 48.5%; Activity [21]: Active; inhibition [22]: 62.6% |
